Data taken from patent US9517265B2, “Methods for the prevention and/or treatment of memory impairment” (The Governing Council of the University of Toronto, priority 2010, dated 2016).
Entries after “also recorded” stand apart in the source; their conditions may differ. Read-outs that look alike come from different tables or passages of the source.

Experiments:
[1] = in vivo; cited from earlier work
postsynaptic GABAARs = test: Whole-cell currents evoked by exogenous GABA (10 μM) in cultured hippocampal neurons; format: cell-based, mice
α5GABAARs [2] = target: T1, α5GABAARs (Mus musculus, UniProt P22723+Q8BHJ7); test: Tonic inhibitory current, whole cell voltage-clamp in cultured hippocampal neurons; format: cell-based, mice; set-up: endogenous in cells; host or cells: primary embryonic mouse hippocampal neurons, alone or co-cultured with cortical microglia; settings: for effect on the tonic current (in words): cultured hippocampal neurons; for amplitude of the tonic current: TNF-α 100 ng/ml, n=10, IL-6 10 ng/ml, n=5
T1 sequence (Q8BHJ7 32-463 limits assumed): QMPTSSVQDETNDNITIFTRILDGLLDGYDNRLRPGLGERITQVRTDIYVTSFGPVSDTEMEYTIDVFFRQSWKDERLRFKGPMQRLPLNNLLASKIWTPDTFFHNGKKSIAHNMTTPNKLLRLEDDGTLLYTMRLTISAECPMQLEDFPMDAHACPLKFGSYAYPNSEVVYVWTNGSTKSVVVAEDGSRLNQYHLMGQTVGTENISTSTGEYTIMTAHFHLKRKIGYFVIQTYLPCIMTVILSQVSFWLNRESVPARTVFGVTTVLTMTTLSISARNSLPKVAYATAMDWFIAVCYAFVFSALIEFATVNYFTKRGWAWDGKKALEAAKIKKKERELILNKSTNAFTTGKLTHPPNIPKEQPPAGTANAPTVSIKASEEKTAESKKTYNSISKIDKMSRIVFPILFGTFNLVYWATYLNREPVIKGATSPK
T1 sequence (P63080 26-473 partner): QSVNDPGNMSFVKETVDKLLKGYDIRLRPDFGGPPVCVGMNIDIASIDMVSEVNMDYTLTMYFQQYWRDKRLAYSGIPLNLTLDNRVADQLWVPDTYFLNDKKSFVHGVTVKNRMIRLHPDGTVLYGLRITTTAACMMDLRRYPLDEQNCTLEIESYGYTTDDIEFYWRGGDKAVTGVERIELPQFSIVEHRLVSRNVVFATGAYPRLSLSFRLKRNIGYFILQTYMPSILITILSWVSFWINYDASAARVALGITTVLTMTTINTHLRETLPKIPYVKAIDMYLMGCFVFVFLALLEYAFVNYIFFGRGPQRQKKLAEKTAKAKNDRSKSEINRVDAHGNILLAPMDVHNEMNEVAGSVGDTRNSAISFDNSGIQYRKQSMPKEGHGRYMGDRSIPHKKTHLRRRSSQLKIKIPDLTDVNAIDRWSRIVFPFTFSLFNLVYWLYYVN
T1 sequence (P22723 39-474): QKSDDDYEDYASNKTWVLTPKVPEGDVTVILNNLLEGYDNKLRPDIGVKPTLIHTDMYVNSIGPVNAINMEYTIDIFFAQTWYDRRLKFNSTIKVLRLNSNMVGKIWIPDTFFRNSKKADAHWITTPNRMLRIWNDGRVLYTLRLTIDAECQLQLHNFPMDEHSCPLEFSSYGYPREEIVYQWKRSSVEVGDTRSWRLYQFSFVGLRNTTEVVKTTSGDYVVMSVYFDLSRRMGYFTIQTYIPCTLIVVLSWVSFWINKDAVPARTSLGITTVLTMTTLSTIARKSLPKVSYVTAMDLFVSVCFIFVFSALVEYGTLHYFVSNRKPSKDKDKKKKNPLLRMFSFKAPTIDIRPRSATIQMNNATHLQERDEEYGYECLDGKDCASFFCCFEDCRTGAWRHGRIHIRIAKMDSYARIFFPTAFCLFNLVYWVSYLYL

α5GABAARs [3] = target: T2, α5GABAARs (Mus musculus, UniProt P22723+P63080+Q8BHJ7); settings: cited from earlier work
T2 construct: host or cells: neurons (mIPSCs and tonic current recorded); preparation not described in this paragraph
T2 sequence (Q8BHJ7 32-463 limits assumed): as the sequence (Q8BHJ7 32-463 limits assumed) above
T2 sequence (P63080 26-473): as the sequence (P63080 26-473 partner) above
T2 sequence (P22723 39-474): as the sequence (P22723 39-474) above

synaptic GABAARs = test: Miniature inhibitory postsynaptic currents (mIPSCs) in cultured hippocampal neurons; format: cell-based, mice
[4] = rats; cited from earlier work
α5GABAARs [5] = target: T1, α5GABAARs; settings: WT mice, etomidate or etomidate plus L-655,708 30 min prior to training; cited from earlier work
α5GABAA receptors [6] = target: α5GABAA receptors (Mus musculus, UniProt P22723+Q8BHJ7); settings: for effect of the anesthetic on recognition memory, wild-type mice (in words): 24 h after anesthesia
Sequence of α5GABAA receptors (Mus musculus, UniProt P22723+Q8BHJ7) (Q8BHJ7 32-463 limits assumed): as the sequence (Q8BHJ7 32-463 limits assumed) above
Sequence of α5GABAA receptors (Mus musculus, UniProt P22723+Q8BHJ7) (P63080 26-473 partner): as the sequence (P63080 26-473 partner) above
Sequence of α5GABAA receptors (Mus musculus, UniProt P22723+Q8BHJ7) (P22723 39-474): as the sequence (P22723 39-474) above

α5GABAA receptors [7] = target: T3, α5GABAA receptors (Homo sapiens, UniProt P18507+P31644); set-up: host or cells: human volunteers (brain in vivo); settings: human volunteers, given before ethanol; cited from earlier work
T3 sequence (P31644 32-462): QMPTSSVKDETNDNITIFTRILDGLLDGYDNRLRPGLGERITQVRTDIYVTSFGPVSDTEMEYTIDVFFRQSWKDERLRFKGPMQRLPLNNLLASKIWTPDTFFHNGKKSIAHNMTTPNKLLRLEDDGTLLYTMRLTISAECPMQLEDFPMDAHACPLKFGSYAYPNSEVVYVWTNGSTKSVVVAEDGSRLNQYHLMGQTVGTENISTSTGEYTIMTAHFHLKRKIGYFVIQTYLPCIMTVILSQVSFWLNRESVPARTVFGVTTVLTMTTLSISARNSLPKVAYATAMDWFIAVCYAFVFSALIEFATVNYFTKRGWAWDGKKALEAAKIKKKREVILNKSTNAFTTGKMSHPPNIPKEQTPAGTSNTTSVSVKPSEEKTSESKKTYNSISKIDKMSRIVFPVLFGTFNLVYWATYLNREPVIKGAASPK
T3 sequence (P28472 26-473 partner): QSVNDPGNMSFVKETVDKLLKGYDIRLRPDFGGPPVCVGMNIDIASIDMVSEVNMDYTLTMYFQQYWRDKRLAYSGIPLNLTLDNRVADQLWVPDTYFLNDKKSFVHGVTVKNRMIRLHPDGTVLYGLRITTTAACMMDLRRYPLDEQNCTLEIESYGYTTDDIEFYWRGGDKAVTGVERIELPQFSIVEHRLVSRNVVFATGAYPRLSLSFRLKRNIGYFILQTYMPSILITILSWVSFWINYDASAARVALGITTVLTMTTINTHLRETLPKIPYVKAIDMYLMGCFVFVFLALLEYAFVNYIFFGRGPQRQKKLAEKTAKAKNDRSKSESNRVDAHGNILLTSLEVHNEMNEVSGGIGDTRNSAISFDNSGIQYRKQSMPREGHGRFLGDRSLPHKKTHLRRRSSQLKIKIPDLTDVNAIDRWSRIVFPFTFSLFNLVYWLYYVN
T3 sequence (P18507 40-467 limits assumed): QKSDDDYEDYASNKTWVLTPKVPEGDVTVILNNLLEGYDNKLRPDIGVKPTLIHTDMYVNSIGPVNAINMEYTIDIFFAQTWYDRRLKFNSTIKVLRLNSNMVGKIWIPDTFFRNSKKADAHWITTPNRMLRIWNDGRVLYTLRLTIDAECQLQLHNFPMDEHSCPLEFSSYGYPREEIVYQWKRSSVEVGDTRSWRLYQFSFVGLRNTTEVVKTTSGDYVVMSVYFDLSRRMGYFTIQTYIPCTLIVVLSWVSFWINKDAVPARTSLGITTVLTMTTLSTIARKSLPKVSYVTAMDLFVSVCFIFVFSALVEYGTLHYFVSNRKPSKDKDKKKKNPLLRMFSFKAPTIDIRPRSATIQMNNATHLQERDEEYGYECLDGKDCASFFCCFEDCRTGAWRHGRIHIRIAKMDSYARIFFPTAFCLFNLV

[8] = pretreatment before tibial osteotomy; cited from earlier work
α5GABAARs [9] = target: T1, α5GABAARs; test: Long-term potentiation of field postsynaptic potentials in hippocampal slices; format: cell-based, mice; set-up: endogenous in cells; host or cells: primary embryonic mouse hippocampal neurons, alone or co-cultured with cortical microglia
Experimental: IL-1β could influence any of several molecular processes that regulate synaptic plasticity^50. The key question is whether α5GABAARs underlie the predominant effect of IL-1β on plasticity. Our working hypothesis is that IL-1β acts via α5GABAARs to inhibit LTP. […] After 3 hours, the mice were sacrificed and the hippocampi harvested. Extracellular field recordings were obtained with a recording electrode placed in the stratum radiatum of the CA1 subfield.
The long-term potentiation (LTP) of evoked field postsynaptic potentials (fPSPs) was studied using previously described methods^29. […] Baseline stimulation frequency was 0.05 Hz. LTP was induced in the slices with theta burst stimulation (TBS), which consisted of 10 stimulus trains at 5 Hz, with each train consisting of 4 pulses at 100 Hz. The fPSPs were monitored for 10 min before TBS and for 60 min after TBS.

α5GABAARs [10] = test: Tonic current in hippocampal neuron-microglia co-culture; format: cell-based, mice; settings: LPS 100 ng ml^−1 overnight; IL-1ra 250 ng ml^−1

In the case of `CNC(=O)c1cc2c(cn1)[nH]c1ccccc12` [FG 7142], the “convulsant / anxiogenic properties (in words)” value [1] is given as “have epileptogenic and anxiogenic properties”.
In the case of `O=c1cc(N2CCOCC2)oc2c(-c3ccccc3)cccc12` [LY294,002], the “effect on IL-1β inhibition of the GABA-evoked peak current (in words)” value (“effect on IL-1β inhibition” below) (postsynaptic GABAARs) is reported as “completely prevented IL-1β-dependent inhibition of the GABA-evoked peak current; also recorded: alone had no effect on the GABA-evoked peak responses” and the “effect on the tonic current (in words)” value (α5GABAARs [2]) is reported as “had no effect on the IL-1β-induced increase in tonic current”.
For `Cc1ncc2n1-c1ccc(Cl)cc1C(c1ccccc1F)=NC2` [Midazolam, midazolam], the “increase in charge transfer for the tonic current relative to that for mIPSCs” value (α5GABAARs [3]) is listed as 7-21 fold.
With `CCc1nc(-c2ccc(OC)cc2)[nH]c1-c1ccncc1` [SB202,474] the “effect on the tonic current (in words)” value (α5GABAARs [2]) was “had no effect on the tonic current”.
In the case of `C[S+]([O-])c1ccc(-c2nc(-c3ccncc3)c(-c3ccc(F)cc3)[nH]2)cc1` (stereo not shown) [SB203,580], the “effect on IL-1β inhibition” value (postsynaptic GABAARs) is reported as “had no effect on inhibition of the GABA-evoked peak current by IL-1β”, the tonic current density (α5GABAARs [2]; IL-1β 20 ng ml^−1 20 min with or without SB203,580 20 μM 30 min) is reported as 1.0±0.1 pA pF^−1 and the “effect on the tonic current (in words)” value (α5GABAARs [2]) is reported as “completely blocked the IL-1β-induced increase in the tonic current”. The “effect on mIPSCs (in words)” value (synaptic GABAARs) was “did not modify IL-1β inhibition of miniature IPSCs”.
For `FC(F)OC(F)C(F)(F)F` (stereo not shown) [desflurane], the “threshold concentration that impaired memory performance during fear conditioning” value [4] is listed as 0.44%.
In the case of `CCOC(=O)c1cncn1[C@H](C)c1ccccc1` [etomidate], the “effect on the tonic current (in words)” value (α5GABAARs [2]) is listed as “selectively potentiate the tonic current; also recorded: increased the amplitude of the tonic current; also recorded: produced a supra-additive increase in the tonic current” and the “contextual fear memory, freezing score (in words)” value (α5GABAARs [5]) is listed as “reduced the freezing score”.
In the case of `COc1ccc(-c2ccc(=N)n(CCCC(=O)O)n2)cc1` [gabazine], the “effect on the tonic current (in words)” value (α5GABAARs [2]) is reported as “selectively inhibits the synaptic but not tonic current”.
In the case of `FC(F)(F)C(Cl)Br` (stereo not shown) [halothane], the “threshold concentration that impaired memory performance during fear conditioning” value [4] is given as 0.3%.
In the case of `CC(C)c1cccc(C(C)C)c1O` [propofol], the “increase in charge transfer for the tonic current relative to that for mIPSCs” value (α5GABAARs [3]) is given as 6-33 fold.
In the case of `FCOC(C(F)(F)F)C(F)(F)F` [sevoflurane], the “effect of the anesthetic on recognition memory, wild-type mice (in words)” value (α5GABAA receptors [6]) is reported as “did not learn the task”, the “effect of the anesthetic on recognition memory, wild-type mice (in words)” value (α5GABAA receptors [6]; listed as Sevoflurane) is reported as “caused memory deficits 24 h after anesthesia” and the “exploratory behavior during the training phase” value (α5GABAA receptors [6]; 24 h after sevoflurane) is reported as 23.45 ± 3.88 s. For the same compound, the “time with familiar object” value (α5GABAA receptors [6]; 24 h after sevoflurane) was 13.13±1.95, the “time with novel object” value (α5GABAA receptors [6]; 24 h after sevoflurane) was 15.41±2.25 and the “discrimination ratio, short-term memory” value (α5GABAA receptors [6]; 24 h after sevoflurane 2.3% 1 h) was 0.53±0.03. For the same compound, the “threshold concentration that impaired memory performance during fear conditioning” value [4] was 0.3%.
For `Cc1cc(-c2nnc3c4ccccc4c(OCc4cn(C)nn4)nn23)no1` [α5IA], the “ethanol-induced memory impairment (in words)” value (α5GABAA receptors [7]) is given as “reversed memory impairment for word-list learning after the ingestion of ethanol; also recorded: attenuated ethanol-induced impairment of word recall”.
In the case of “IL-1ra: naturally occurring IL-1 receptor antagonist that blocks the type 1 IL-1 receptor”, the “effect on IL-1β inhibition” value (postsynaptic GABAARs) is reported as “this effect could be blocked by IL-1ra”, the “effect on the tonic current (in words)” value (α5GABAARs [2]) is reported as “completely blocked by IL-1ra; also recorded: alone had no effect on the tonic or synaptic currents; also recorded: completely blocked both the increase in tonic current and the reduction of synaptic current by IL-1β” and the “effect on mIPSCs (in words)” value (synaptic GABAARs) is reported as “this effect could be blocked by IL-1ra”. For the same compound, the “postsurgical memory deficits (in words)” value [8] was “no memory deficits were detected”, the “effect on LTP (in words)” value (α5GABAARs [9]) was “This inhibition of LTP was abolished by incubating the slices with IL-1ra” and the “LTP, slope of fPSPs” value (α5GABAARs [9]; slices from LPS-treated WT mice incubated with IL-1ra 100 ng ml^−1 for 1 h, n=10) was 126.2%±3.9%. The “effect on the tonic current (in words)” value (α5GABAARs [10]) was “fully reversed the enhancement of the tonic current”.
For IL-6: pro-inflammatory cytokine, the “amplitude of the tonic current” value (α5GABAARs [2]) was 96.3%±6.0% and the “effect on the tonic current (in words)” value (α5GABAARs [2]) was “did not modify the tonic conductance in hippocampal neurons”.
For TNF-α, the “amplitude of the tonic current” value (α5GABAARs [2]) was 104.1%±12.1% and the “effect on the tonic current (in words)” value (α5GABAARs [2]) was “did not modify the tonic conductance in hippocampal neurons”.
